Entries after “also recorded” stand apart in the source; their conditions may differ.
Legend:
[1] = test system: Notch signalling via DL4:N1 ligand-receptor pair (Notch1); assay: DL4:N1 coculture assay, Notch driven luciferase reporter; type: cell-based, mouse; conditions: for DL4:N1 (Notch1) driven pathway activation: 10 μM, 24 hours
Excerpt: Mouse DL4-IRES dsRED cDNA was cloned into a pENTR1 vector (Invitrogen®) and finally shuttled into a destination lentivirus vector using Gateway cloning strategy (Invitrogen). A Phosphoglycerate kinase (PGK) promoter drove the expression of DL4 protein. DL4-lentiviral particles were produced in 293T cells by cotransfection of DL4-lentivirus vector, Gag/pol expression plasmid and plasmid encoding for viral envelope proteins. To overexpress Notch1 protein, mouse full length Notch1 cDNA was a cloned in a pCDNA3.1-IRES-puromycin vector. Notch1 cDNA was cloned upstream of IRES-puromycin between HindIII and XbaI restriction sites. A CMV promoter controlled the expression of Notch1 protein.
To measure the Notch signalling activation, CSL/RBP-jk consensus DNA binding sequences were cloned in a head to tail conformation in the pGL4 luciferase vector (Promega), thus named 12×CSL/RBP-jjk luciferase vector. In order to determine the Notch pathway activation in chemical compound screening assay, 12×CSL/RBP-jk consensus DNA binding sequences were cloned into pGL4.26.luciferase vector (Promega). As an internal control for transfection efficiency, SV40 Renilla vector was used (Promega).
In order to generate DL4 and N1 stable cell lines, HeLa cell were bought from ATCC (catalog # CCL-2). To generate DL4 stable lines, cells were transduced with DL4-lentiviral particles. DL4 stable clones were selected using puromycin. High DL4 expressing clones were sorted using antibodies against DL4 with Fluorescence activated cell sorting (FACS). To generate N1 stable line, cell were transfected with a pCDNA3.1+(Invitrogen) plasmid containing mouse full length Notch1 under the control of CMV promoter. To select for Notch1 expressing clones, an IRES puromycin cassette was cloned downstream of Notch1 cDNA. HeLa cells expressing high levels of Notch1 were enriched by FACS using anti-Notch1 antibodies. DL4- and N1-HeLa cells were cultured in DMEM (GIBCO, Invitrogen), 10% FCS and 10 ug/ml of puromycin (Sigma).
For chemical library screen, the coculture assay was performed as follows. N1-HeLa cells were cotransfected in 10 cm tissue culture dishes with 16 μg of pGL4.26. 12×CSL.luciferase vector/plate, 4 μg of Notch1 expression plasmid/plate, and 200 ng of SV40 Renilla vector/plate. DL4- and N1-HeLa cells were detached from the plate by using 0.5 mM EDTA (1×PBS). The both cell populations were counted and mixed in 1:1 ratio (5,000:5,000 cells/well in a 384 well plate) and dispensed into 384 well plates (white, clear bottom, Corning) using multidrop Combi plate dispenser. The assay plates were pre-dispensed (using automated Biomek 3000 liquid handler) with chemical compound libraries (Microsource NIMDS, Maybridge Hitfinder and Prestwick) to give a final concentration of 10 μM. The final assay volume was 22 μls. Twenty-four hours later, growth media was aspirated and cells were lysed with 1× Passive lysis buffer for 10 minutes at room temperature. Luciferase activity was measured using Luciferase Assay Reagent II and Renilla values were determined by using Stop and Glow reagent (Dual luciferase assay system, Cat #E1980, Promega). Luciferase and renilla readouts were taken using Tecan® F500 (Tecan) multiplate reader. All the liquid handling steps (aspiration of the medium, dispensing of Passive lysis buffer, Luciferase Assay Reagent II and Stop and Glow reagents) were performed using ELF406 liquid handler.
In order to identify novel modulators of the Notch pathway, Applicants have established a coculture assay in which DL4 ligand expressing HeLa cells were cultured with N1 HeLa cells, thereby activating the Notch pathway. The use of a DL4 and N1 HeLa cell coculture system mimics physiological conditions of cell-cell communication between ligand and receptor expressing cells. The in vitro generation of a controlled receptor-ligand assay system allowed Applicants to modify and monitor the Notch signal intensity by γ-secretase inhibitors. […]

[2] = test system: Notch-independent RAJI cells; assay: Alamar blue proliferation assay, RAJI; type: cell-based; conditions: control line with no known Notch mutations
Experimental: Alamarblue® proliferation assays were performed to determine the growth kinetics of Notch inhibitor treated cells. Alamar Blue® consists of a cell permeable substrate resazurin. In metabolically active and proliferating cells, resazurin is converted to resorufin due to an intrinsic reducing power of live cells and produces a red fluorescence. Therefore production of resorufin serves as an indicator of the viability of the cell population.
Proliferation assays were performed by seeding 5000 cells/well in a 96 well plate. Cells were treated with DMSO or Notch inhibitors for different time intervals. Each treatment for every time interval was carried out in 8 replicates. To determine the growth kinetics, 10 μl of Alamar Blue® (Invitrogen) was added to each well and incubated for 4 hours. Alamarblue readout was taken using Tecan F500 (Tecan) multiplate reader.
As treatment of the human T-ALL cell lines and PANC1 pancreatic cancer cell line with 6-(4-Tert-Butylphenoxy)Pyridin-3-Amine (I3) induced a downregulation of Notch signalling, Applicants questioned whether this inhibition of the pathway translates into growth arrest in cancer cells. To this end, RPMI 8402, KOPTK1, PANC1 and nRas driven melanoma cell lines were grown in the presence or absence of 6-(4-Tert-Butylphenoxy)Pyridin-3-Amine (I3) for several days and their proliferative index was measured using the Alamar blue assay. […]

DND41-NICD cells = assay: Alamar blue proliferation assay, DND41-NICD; type: cell-based, human; conditions: over 5 days
Experimental: FIGS. 5A-5E show 6-(4-Tert-Butylphenoxy)Pyridin-3-Amine (I3) blocks NICD dependent growth of human cancer cells. […] Western blot analyses were carried out for Hes1 protein using Hes1 specific antibodies. […] Growth kinetics of the parental cell line was followed over 5 days using Alamar blue readout. […] This mutation renders this cell line insensitive to γ-secretase inhibitor treatment. […] The cells were treated with DMSO, γ-secretase inhibitor DAPT and I3 for 6 days. Alamar blue readout was taken at day 0, day 2, day 4 and day 6. Eight replicates were used for each treatment and time point. […] P values were calculated using Student's t.test. *=p value<0.05. ns=not significant.
Alamarblue® proliferation assays were performed to determine the growth kinetics of Notch inhibitor treated cells. […] In metabolically active and proliferating cells, resazurin is converted to resorufin due to an intrinsic reducing power of live cells and produces a red fluorescence. […]
Proliferation assays were performed by seeding 5000 cells/well in a 96 well plate. […] Alamarblue readout was taken using Tecan F500 (Tecan) multiplate reader.
6-(4-Tert-Butylphenoxy)Pyridin-3-Amine (I3) can block NICD mediated activation of the Notch pathway (FIGS. 1A-D). […] In addition, these two cell lines were also monitored over several days for anti-proliferative effects of 6-(4-Tert-Butylphenoxy)Pyridin-3-Amine (I3) and DAPT.

SMILES | downregulation of Notch signalling activation ([1]; 10 μM DAPT vs DMSO, 384 well plate) [fold] | DL4:N1 (Notch1) driven pathway activation [1] | proliferation [2] | proliferation (Alamar blue) (DND41-NICD cells)
C[C@H](NC(=O)Cc1cc(F)cc(F)c1)C(=O)N[C@H](C(=O)OC(C)(C)C)c1ccccc1 [DAPT, N—[N-(3,5-difluorophenacetyl-Lalanyl)]-(S)-phenylglycine t-butyl ester, reference compound] | 10 | block Notch1 and Notch2 induced pathway activation | neither DAPT nor 6-(4-Tert-Butylphenoxy)Pyridin-3-Amine (I3) had any effect on the proliferation | did not have a significant impact on their proliferation
CC(C)(C)c1ccc(Oc2ccc(N)cn2)cc1 [I3, 6-(4-Tert-Butylphenoxy)Pyridin-3-Amine] |  | caused an inhibition of Notch signalling via both DL4:N1 and DL4:N2 ligand-receptor pairs; also recorded: block Notch1 and Notch2 induced pathway activation | neither DAPT nor 6-(4-Tert-Butylphenoxy)Pyridin-3-Amine (I3) had any effect on the proliferation | induced a proliferation arrest; also recorded: able to block proliferation of NICD overexpressing leukemic cell lines which are resistant to DAPT
